# Results as given in patent US8362267B2, “Benzophenone thiazole derivatives useful for inhibiting formation of microtubule and method for producing the same” (Chong Kun Dang Pharmaceutical Corp., priority 2008, dated 2013).
# Like-named read-outs stand apart in the source and are kept apart here.
# Key:
# [1] = Measurement of solubility in water (HPLC); assay type: physicochemical; conditions: thermodynamic from solid; in distilled water, 25° C.
# Description: The compounds of the present invention were developed to reduce toxicity caused by deposition on organ due to low solubility of compound 516, as confirmed by animal tests. Considering this, solubility of the present compounds in water was thus measured.
# The compound was dissolved in acetonitrile to a concentration of 1 mg/mL and the solution was diluted with a mobile phase to a concentration of 5, 12.5, 25, 50 or 100 μg/ml.
# 1. The compound was added to distilled water such that the concentration of each specimen was adjusted to 10 mg/mL, stirred in a thermostat stirrer (25° C., 200 rpm) for about 7 days, filtered and diluted with a mobile phase to an optimal concentration.
# 2. The compound was added to distilled water such that the concentration of each specimen was adjusted to 10 mg/mL, sonicated for 30 minutes, stirred for 5 minutes, filtered, sonicated for 30 minutes again and diluted with a mobile phase to an optimal concentration.
# Column temperature: 25° C.
# Column: Kromasil C8 (4.6×150 mm, 5 μm)
# Mobile phase: 20 mM ammonium acetate, pH 5.0/ACN (60/40)
# [2] = tested on: CX-1 (human colon adenocarcinoma); assay: In vivo antitumor activity, human xenograft, colorectal cancer model CX-1; parameters: species or system BALB/c nude mice; conditions: for weight loss / animal death / pharmaceutical effects as compared to the reference drug, AC7700: CX-1 xenograft model; for weight loss: as compared to the compound 516, in words; for animal death / pharmaceutical effects as compared to the reference drug, AC7700: in words; for Body weight change (%) / IR (%) / Number of dead animals: q4d x 4 (i.p.)
# Description: (§1) BALB/c male nude mice (4 weeks) available from Central Lab Animal Inc. were used for human xenograft experiments. Sterile food and potable water were freely provided to the mice in an isolated sterile cage and the temperature of the cage was maintained at 23±0.5° C.
# (§2) In vivo human xenograft experiments were performed in accordance with the following procedure. In vitro proliferated human-derived cancer cell lines (CX-1, HCT-15, A549, MKN45, calu-6) were subcutaneously injected into the abdominal region of BALB/c nude mice and were thus proliferated in vivo. After 20 to 25 days, the mice were sacrificed by cervical spine dislocation, solid cancer cells proliferated in the mice were sterilely separated and fresh cancer cells from which connective or necrotic tissues or skin were removed were collected. The fragments of tumor were transplanted to the BALB/c nude mice.
# (§3) The mice in which cancer cells were proliferated to a predetermined size were collected on the 15th to 30th day after human-derived cancer models were transplanted into the BALB/c nude mice and then used for the tests. For each experimental group, the drug was injected at a dose of 0.1 mL per 10 g of mouse in accordance with a dose schedule, when tumor cells were grown to a size of 100 to 200 mm^3 after tumor transplantation.
# (§4) After administration, antitumor activity was evaluated based upon an antitumor inhibition rate (IR %) of tumor growth, obtained by comparing a tumor volume measured on the final day with a tumor volume of a control group. As the reference drug, AC7700 (Sanofi-Aventis), which is currently undergoing phase III clinical trials, was used. Tumor size=(short diameter)^2×(long diameter)/2 I.R.(%)=[1−(average tumor size of drug-administered group)/(average tumor size of control group)]×100
# [3] = tested on: calu-6 (human lung carcinoma, #30056); assay: In vivo antitumor activity, human xenograft, non-small cell lung cancer model calu-6
# Description: as §1
# (§5) A human cancer model, CX-1 (human colon adenocarcinoma), for xenograft experiment was obtained from the German Cancer Research Center (DKFZ), and HCT-15 (human colorectal adenocarcinoma, CCL-225) and A549 (human lung carcinoma, CCL-185) were obtained from ATCC (American Type Culture Collection, Rockville, Md., USA). Human tumor cells, MKN45 (human gastric adenocarcinoma, #80103) and calu-6 (human lung carcinoma, #30056) were obtained from KCLB (Korean Cell Line. Bank).
# (§6) CX-1 was incubated in a 95% air incubator (37° C., 5% CO2) using a DMEM (Dulbecco's Modified Eagle's Medium, Gibco) supplemented with 10% heat-inactivated fetal bovine serum (Gibco) and 1% Antibiotics-Antimycotics (Gibco). Other cell lines were incubated in a 95% air incubator (37° C., 5% CO2) using an RPM1640 (Gibco BRL) medium supplemented with 10% heat-inactivated fetal bovine serum (Gibco) and 1% Antibiotics-Antimycotics (Gibco).
# as §2, §3, §4
# [4] = tested on: HCT-15 (human colorectal adenocarcinoma, CCL-225); assay type: in vivo; conditions: HCT-15 xenograft, q4d x 4 (i.p.)
# Description: as §1, §5, §6, §2, §3, §4
# [5] = tested on: A549 (human lung carcinoma, CCL-185); assay: In vivo antitumor activity, human xenograft, lung cancer model A549
# Description: as §1, §5, §6, §2, §3, §4
# [6] = tested on: MKN45 (human gastric adenocarcinoma, #80103); assay: In vivo antitumor activity, human xenograft, stomach cancer model MKN45
# Description: as §1, §5, §6, §2, §3, §4
# [7] = Table 4, CX-1 xenograft, 5 mg/kg
# [8] = Table 4, CX-1 xenograft, 10 mg/kg
# [9] = calu-6 xenograft, 5 mg/kg, q4d x 4 (i.p.)
# [10] = calu-6 xenograft, 7.5 mg/kg, q4d x 4 (i.p.)
# [11] = calu-6 xenograft, 10 mg/kg, q4d x 4 (i.p.)
# [12] = A549 xenograft, 5 mg/kg, q4d x 4 (i.p.)
# [13] = A549 xenograft, 7.5 mg/kg, q4d x 4 (i.p.)
# [14] = A549 xenograft, 10 mg/kg, q4d x 4 (i.p.)
# [15] = MKN45 xenograft, 5 mg/kg, q4d x 4 (i.p.)
# [16] = MKN45 xenograft, 7.5 mg/kg, q4d x 4 (i.p.)
# [17] = MKN45 xenograft, 10 mg/kg, q4d x 4 (i.p.)
# [18] = Table 4, CX-1 xenograft, 20 mg/kg
# [19] = Table 3, CX-1 xenograft, 5 mg/kg
# [20] = calu-6 xenograft, 80 mg/kg, q4d x 4 (i.p.)
# [21] = Table 3, CX-1 xenograft, 100 mg/kg
# [22] = Table 4, CX-1 xenograft, 100 mg/kg
# [23] = A549 xenograft, 80 mg/kg, q4d x 4 (i.p.)
# [24] = MKN45 xenograft, 80 mg/kg, q4d x 4 (i.p.)
compound,measurement,setting,value
"COc1cc(C(=O)c2ccc(-c3csc(NC(=O)[C@@H](N)CC(C)C)n3)cc2-n2cncn2)cc(OC)c1OC [Compound 647, (S)—N-(4-(3-(1H-1,2,4-triazol-1-yl)-4-(3,4,5-trimethoxybenzoyl)phenyl)thiazol-2-yl)-2-amino-4-methylpentanamide]",solubility,[1],12.1 mg/mL
"COc1cc(C(=O)c2ccc(-c3csc(NC(=O)CN)n3)cc2-n2cncn2)cc(OC)c1OC [Compound 615, N-(4-(3-(1H-1,2,4-triazol-1-yl)-4-(3,4,5-trimethoxybenzoyl)phenyl)thiazol-2-yl)-2-aminoacetamide]",solubility,[1],23.3 mg/mL
COc1cc(C(=O)c2ccc(-c3csc(NC(=O)[C@@H](N)Cc4ccccc4)n3)cc2-n2cncn2)cc(OC)c1OC [Compound 625],weight loss,[2],no weight loss
same,animal death,[2],no animal death
same,"pharmaceutical effects as compared to the reference drug, AC7700",[2],significantly superior pharmaceutical effects
same,Body weight change (%),[2]; [7],+28.9%
same,IR (%),[2]; [7],21%
same,Body weight change (%),[2]; [8],+24.5%
same,IR (%),[2]; [8],43%
same,solubility,[1],11 mg/mL
"COc1cc(C(=O)c2ccc(-c3csc(NC(=O)[C@@H](N)C(C)C)n3)cc2-n2cncn2)cc(OC)c1OC [Compound 624, (S)—N-(4-(3-(1H-1,2,4-triazol-1-yl)-4-(3,4,5-trimethoxybenzoyl)phenyl)thiazol-2-yl)-2-amino-3-methylbutanamide]",pharmaceutical effects as compared with the reference drug,"[3]; calu-6 xenograft model, in words",significantly superior pharmaceutical effects
same,Body weight change (%),[3]; [9],+26.2%
same,IR (%),[3]; [9],41%
same,Body weight change (%),[3]; [10],+26.0%
same,IR (%),[3]; [10],73%
same,Body weight change (%),[3]; [11],+20.6%
same,IR (%),[3]; [11],82%
same,weight loss,[2],no weight loss
same,animal death,[2],no animal death
same,"pharmaceutical effects as compared to the reference drug, AC7700",[2],significantly superior pharmaceutical effects
same,Body weight change (%),[2]; [7],+25.7%
same,IR (%),[2]; [7],28%
same,Body weight change (%),[2]; [8],+14.7%
same,IR (%),[2]; [8],64%
same,Body weight change (%),[4]; 5 mg/kg,+1.8%
same,IR (%),[4]; 5 mg/kg,12%
same,Body weight change (%),[4]; 7.5 mg/kg,+3.2%
same,IR (%),[4]; 7.5 mg/kg,63%
same,Body weight change (%),[4]; 10 mg/kg,+6.6%
same,IR (%),[4]; 10 mg/kg,69%
same,pharmaceutical effects as compared with the reference drug,"[5]; A549 xenograft model, in words",significantly superior pharmaceutical effects
same,Body weight change (%),[5]; [12],−1.7%
same,IR (%),[5]; [12],39%
same,Body weight change (%),[5]; [13],+1.7%
same,IR (%),[5]; [13],61%
same,Body weight change (%),[5]; [14],−1.2%
same,IR (%),[5]; [14],71%
same,solubility,[1],14.9 mg/mL
same,pharmaceutical effects as compared with the reference drug,"[6]; MKN45 xenograft model, in words",significantly superior pharmaceutical effects
same,Body weight change (%),[6]; [15],−11.8%
same,IR (%),[6]; [15],21%
same,Body weight change (%),[6]; [16],+2.9%
same,IR (%),[6]; [16],46%
same,Body weight change (%),[6]; [17],+4.3%
same,IR (%),[6]; [17],68%
"COc1cc(C(=O)c2ccc(-c3csc(NC(=O)CN(C)C)n3)cc2-n2cncn2)cc(OC)c1OC [Compound 631, N-(4-(3-(1H-1,2,4-triazol-1-yl)-4-(3,4,5-trimethoxybenzoyl)phenyl)thiazol-2-yl)-2-(dimethylamino)acetamide]",weight loss,[2],no weight loss
same,animal death,[2],no animal death
same,"pharmaceutical effects as compared to the reference drug, AC7700",[2],significantly superior pharmaceutical effects
same,Body weight change (%),[2]; [7],+24.8%
same,IR (%),[2]; [7],23%
same,Body weight change (%),[2]; [8],+26.7%
same,IR (%),[2]; [8],20%
same,Body weight change (%),[2]; [18],+20.9%
same,IR (%),[2]; [18],37%
"COc1cc(C(=O)c2ccc(-c3csc(N)n3)cc2-n2cncn2)cc(OC)c1OC [Compound 516, {4-(2-aminothiazol-4-yl)-2-(1H-1,2,4-triazol-1-yl)phenyl}(3,4,5-trimethoxyphenyl)methanone, reference compound]",animal death,[2],two animals died
same,"pharmaceutical effects as compared to the reference drug, AC7700",[2],significantly superior pharmaceutical effects
same,Body weight change (%),[2]; [19],+15.2%
same,Number of dead animals,[2]; [19],2/6
same,IR (%),"[2]; Table 3, CX-1 xenograft, 5 mg/kg, tumor volume on final day vs control",36%
same,solubility,[1],0.5 mg/mL
"COc1ccc(/C=C\c2cc(OC)c(OC)c(OC)c2)cc1NC(=O)[C@@H](N)CO [AC7700, reference compound]",Body weight change (%),[3]; [20],+22.4%
same,IR (%),[3]; [20],80%
same,Number of dead animals,[3]; [20],0/6
same,Body weight change (%),[2]; [21],+13.2%
same,Number of dead animals,[2]; [21],2/6
same,IR (%),"[2]; Table 3, CX-1 xenograft, 100 mg/kg, tumor volume on final day vs control",48%
same,Body weight change (%),[2]; [22],+22.8%
same,IR (%),[2]; [22],34%
same,Number of dead animals,[2]; [22],0/6
same,Body weight change (%),[4]; 80 mg/kg,+5.5%
same,IR (%),[4]; 80 mg/kg,66%
same,Number of dead animals,[4]; 80 mg/kg,1/6
same,Body weight change (%),[5]; [23],+2.6%
same,IR (%),[5]; [23],64%
same,Number of dead animals,[5]; [23],0/7
same,Body weight change (%),[6]; [24],+7.8%
same,IR (%),[6]; [24],55%
same,Number of dead animals,[6]; [24],0/6
